Results taken from patent US20230340011A1 (Asteroid Therapeutics, priority 2022, published 2023).
pEC50, pIC50: −log10 of the molar value.

Experiments:
LXRβ = LXRβ (Homo sapiens (Human), UniProt P55055); assay: In vitro assay LXRβ: PathHunter NHR CHO cells, LXRβ / Steroid Receptor Co-activator Peptide enzyme fragment complementation; assay type: cell-based; settings: PathHunter NHR CHO cells, full-length human LXRβ and SRCP, chemiluminescent signal; read-out: LXRβ PPI
In short: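 Co-activator recruitment measured by chemiluminescence after signal generation. The CHO line carries full-length human LXRβ tagged with ProLink and an SRCP–enzyme acceptor fusion in the nucleus; cells sat overnight at 37° C before testing, in charcoal-dextran filtered serum medium with 1% final vehicle.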

SREBP-2 = SREBP-2 (Homo sapiens (Human), UniProt Q12772); assay: In vitro assay SREBP-2: PathHunter U2OS SREBP-2 Nuclear Translocation Cell Line, U18666A-stimulated; assay type: cell-based; settings: PathHunter U2OS SREBP-2 nuclear translocation cells, U18666A 10 μM, overnight (16 hours)

Chain of LXRβ (P55055 whole entry, the tested form may be a part): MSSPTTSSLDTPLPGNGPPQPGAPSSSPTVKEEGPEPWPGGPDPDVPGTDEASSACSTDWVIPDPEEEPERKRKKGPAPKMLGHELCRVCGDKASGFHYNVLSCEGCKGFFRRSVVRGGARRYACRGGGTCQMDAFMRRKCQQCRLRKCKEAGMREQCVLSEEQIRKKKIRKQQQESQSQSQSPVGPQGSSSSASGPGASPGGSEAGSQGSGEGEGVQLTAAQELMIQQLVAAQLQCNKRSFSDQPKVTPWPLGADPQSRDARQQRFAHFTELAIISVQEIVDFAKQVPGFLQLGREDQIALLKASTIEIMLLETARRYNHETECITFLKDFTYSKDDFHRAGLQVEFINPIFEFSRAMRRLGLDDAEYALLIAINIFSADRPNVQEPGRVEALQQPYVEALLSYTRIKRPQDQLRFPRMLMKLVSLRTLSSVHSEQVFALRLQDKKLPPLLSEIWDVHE

Row | SMILES | pEC50 (LXRβ) | pIC50 (SREBP-2)
1 | C[C@H](CCC(=O)N1CCC(N(C)C(=O)c2ccncc2)CC1)[C@H]1CC[C@H]2[C@@H]3CC=C4C[C@@H](O)CC[C@]4(C)[C@H]3CC[C@]12C [Example 288, N-(1-((R)-4-((3S,8S,9S,10R,13R,14S,17R)-3-hydroxy-10,13-dimethyl-2,3,4,7,8,9,10,11,12,13,14,15,16,17-tetradecahydro-1H-cyclopenta[a]phenanthren-17-yl)pentanoyl)piperidin-4-yl)-N-methylisonicotinamide] | < 5.00 | 6.00 to 6.60
2 | C[C@H](CCc1ncccc1Cl)[C@H]1CC[C@H]2[C@@H]3CC=C4C[C@@H](O)CC[C@]4(C)[C@H]3CC[C@]12C [Example 184, bis((1R,3aS,3bS,7S,9aR,9bS,11aR)-1-[(2R)-4-(3-chloropyridin-2-yl)butan-2-yl]-9a,11a-dimethyl-1H,2H,3H,3aH,3bH,4H,6H,7H,8H,9H,9aH,9bH,10H,11H,11aH-cyclopenta[a]phenanthren-7-ol)] | 5.00 to 6.00 | > 6.60
3 | COc1ncc(OC)c(N2CCN(C(=O)CC[C@@H](C)[C@H]3CC[C@H]4[C@@H]5CC=C6C[C@@H](O)CC[C@]6(C)[C@H]5CC[C@]34C)CC2)n1 [Example 617, (R)-1-(4-(2,5-dimethoxypyrimidin-4-yl)piperazin-1-yl)-4-((3S,8S,9S,10R,13R,14S,17R)-3-hydroxy-10,13-dimethyl-2,3,4,7,8,9,10,11,12,13,14,15,16,17-tetradecahydro-1H-cyclopenta[a]phenanthren-17-yl)pentan-1-one] | < 5.00 | > 6.60
4 | CCC1(O)CC2(CN(C(=O)CC[C@@H](C)[C@H]3CC[C@H]4[C@@H]5CC=C6C[C@@H](O)CC[C@]6(C)[C@H]5CC[C@]34C)C2)C1 [Example 102, (R)-1-(6-ethyl-6-hydroxy-2-azaspiro[3.3]heptan-2-yl)-4-((3S,8S,9S,10R,13R,14S,17R)-3-hydroxy-10,13-dimethy12,3,4,7,8,9,10,11,12,13,14,15,16,17-tetradecahydro-1H-cyclopenta[a]phenanthren-17-yl)pentan-1-one] | < 5.00 | > 6.60
5 | C[C@H](CCC(=O)N1CCS(=O)(=O)C1)[C@H]1CC[C@H]2[C@@H]3CC=C4C[C@@H](O)CC[C@]4(C)[C@H]3CC[C@]12C [Example 357, (R)-1-(1,1-dioxidothiazolidin-3-yl)-4-((3S,8S,9S,10R,13R,14S,17R)-3-hydroxy-10,13-dimethyl-2,3,4,7,8,9,10,11,12,13,14,15,16,17-tetradecahydro-1H-cyclopenta[a]phenanthren-17-yl)pentan-1-one] | < 5.00 | > 6.60
6 | C[C@H]1CCCN(C(=O)CC[C@@H](C)[C@H]2CC[C@H]3[C@@H]4CC=C5C[C@@H](O)CC[C@]5(C)[C@H]4CC[C@]23C)C1 [Example 110, (R)-4-((3S,8S,9S,10R,13R,14S,17R)-3-hydroxy-10,13-dimethyl-2,3,4,7,8,9,10,11,12,13,14,15,16,17-tetradecahydro-1H-cyclopenta[a]phenanthren-17-yl)-1-((S)-3-methylpiperidin-1-yl) pentan-1-one] | 5.00 to 6.00 | > 6.60
7 | C[C@H](CCc1cccc(F)n1)[C@H]1CC[C@H]2[C@@H]3CC=C4C[C@@H](O)CC[C@]4(C)[C@H]3CC[C@]12C [Example 161, (3S,8S,9S,10R,13R,14S,17R)-17-((R)-4-(6-fluoropyridin-2-yl)butan-2-yl)-10,13-dimethyl-2,3,4,7,8,9,10,11,12,13,14,15,16,17-tetradecahydro-1H-cyclopenta[a]phenanthren-3-ol] | 5.00 to 6.00 | > 6.60
8 | C[C@H](COc1cccnc1)[C@H]1CC[C@H]2[C@@H]3CC=C4C[C@@H](O)CC[C@]4(C)[C@H]3CC[C@]12C [Example 180, (3S,8S,9S,10R,13S,14S,17R)-10,13-dimethyl-17-((S)-1-(pyridin-3-yloxy)propan-2-yl)-2,3,4,7,8,9,10,11,12,13,14,15,16,17-tetradecahydro-1H-cyclopenta[a]phenanthren-3-ol] | < 5.00 | > 6.60
9 | COc1ccncc1N1CCN(C(=O)CC[C@@H](C)[C@H]2CC[C@H]3[C@@H]4CC=C5C[C@@H](O)CC[C@]5(C)[C@H]4CC[C@]23C)CC1 [Example 611, (R)-4-((3S,8S,9S,10R,13R,14S,17R)-3-hydroxy-10,13-dimethyl-2,3,4,7,8,9,10,11,12,13,14,15,16,17-tetradecahydro-1H-cyclopenta[a]phenanthren-17-yl)-1-(4-(4-methoxypyridin-3-yl)piperazin-1-yl)pentan-1-one] | < 5.00 | > 6.60
10 | C[C@H](CCC(=O)N1CCC(S(=O)(=O)N(C)C)CC1)[C@H]1CC[C@H]2[C@@H]3CC=C4C[C@@H](O)CC[C@]4(C)[C@H]3CC[C@]12C [Example 290, 1-((R)-4-((3S,8S,9S,10R,13R,14S,17R)-3-hydroxy-10,13-dimethyl-2,3,4,7,8,9,10,11,12,13,14,15,16,17-tetradecahydro-1H-cyclopenta[a]phenanthren-17-yl)pentanoyl)-N,N-dimethylpiperidine-4-sulfonamide] | < 5.00 | > 6.60
11 | COc1ccc(CC[C@@H](C)[C@H]2CC[C@H]3[C@@H]4CC=C5C[C@@H](O)CC[C@]5(C)[C@H]4CC[C@]23C)nc1 [Example 601, (1R,3aS,3bS,7S,9aR,9bS,11aR)-1-[(2R)-4-(5-methoxypyridin-2-yl)butan-2-yl]-9a,11a-dimethyl-1H,2H,3H,3aH,3bH,4H,6H,7H,8H,9H,9aH,9bH,10H,11H,11aH-cyclopenta[a]phenanthren-7-ol] | 5.00 to 6.00 | 6.00 to 6.60
12 | C[C@H](CCC(=O)N(C)C)[C@H]1CC[C@H]2[C@@H]3CC=C4C[C@@](C)(O)CC[C@]4(C)[C@H]3CC[C@]12C [Example 120, (R)-4-((3S,8S,9S,10R,13R,14S,17R)-3-hydroxy-3,10,13-trimethyl-2,3,4,7,8,9,10,11,12,13,14,15,16,17-tetradecahydro-1H-cyclopenta [a]phenanthren-17-yl) -N,N-dimethylpentanamide] | < 5.00 | 5.00 to 6.00
13 | Cc1cccc(OC[C@@H](C)[C@H]2CC[C@H]3[C@@H]4CC=C5C[C@@H](O)CC[C@]5(C)[C@H]4CC[C@]23C)n1 [Example 264, (1R,3aS,3bS,7S,9aR,9bS,11aS)-9a,11a-dimethyl-1-[(2S)-1-[(6-methylpyridin-2-yl)oxy]propan-2-yl]-1H,2H,3H,3aH,3bH,4H,6H,7H,8H,9H,9aH,9bH,10H,11H,11aH-cyclopenta[a]phenanthren-7-ol] | < 5.00 | 6.00 to 6.60
14 | C[C@H](CCC(=O)N1CCS(=O)(=O)[C@H](C)C1)[C@H]1CC[C@H]2[C@@H]3CC=C4C[C@@H](O)CC[C@]4(C)[C@H]3CC[C@]12C [Example 356, (2R)-4-[(4R)-4-[(1R,3aS,3bS,7S,9aR,9bS,11aR)-7-hydroxy-9a,11a-dimethyl-1H,2H,3H,3aH,3bH,4H,6H,7H,8H,9H,9aH,9bH,10H,11H,11aH-cyclopenta[a]phenanthren-1-yl]pentanoyl]-2-methyl-1 λ^6-thiomorpholine-1,1-dione] | < 5.00 | > 6.60
15 | Cc1cncnc1N1CCN(C(=O)CC[C@@H](C)[C@H]2CC[C@H]3[C@@H]4CC=C5C[C@@H](O)CC[C@]5(C)[C@H]4CC[C@]23C)CC1 [Example 508, (R)-4-((3S,8S,9S,10R,13R,14S,17R)-3-hydroxy-10,13-dimethyl-2,3,4,7,8,9,10,11,12,13,14,15,16,17-tetradecahydro-1H-cyclopenta[a]phenanthren-17-yl)-1-(4-(5-methylpyrimidin-4-yl)piperazin-1-yl)pentan-1-one] | < 5.00 | > 6.60
16 | CCCN(OC)C(=O)CC[C@@H](C)[C@H]1CC[C@H]2[C@@H]3CC=C4C[C@@H](O)CC[C@]4(C)[C@H]3CC[C@]12C [Example 13, (R)-4-((3S,8S,9S,10R,13R,14S,17R)-3-hydroxy-10,13-dimethyl-2,3,4,7,8,9,10,11,12,13,14,15,16,17-tetradecahydro-1H-cyclopenta[a]phenanthren-17-yl)-N-methoxy-N-propylpentanamide] | 6.00 to 6.60 | > 6.60
17 | C[C@H](CCC(=O)N1CCN(c2cnn(C)c2)[C@@H](C)C1)[C@H]1CC[C@H]2[C@@H]3CC=C4C[C@@H](O)CC[C@]4(C)[C@H]3CC[C@]12C [Example 656, (R)-4-((3S,8S,9S,10R,13R,14S,17R)-3-hydroxy-10,13-dimethyl-2,3,4,7,8,9,10,11,12,13,14,15,16,17-tetradecahydro-1H-cyclopenta[a]phenanthren-17-yl)-1-((S)-3-methyl-4-(1-methyl-1H-pyrazol-4-yl)piperazin-1-yl)pentan-1-one] | < 5.00 | > 6.60
18 | C[C@H](CCc1cc(F)ccn1)[C@H]1CC[C@H]2[C@@H]3CC=C4C[C@@H](O)CC[C@]4(C)[C@H]3CC[C@]12C [Example 163, (3S,8S,9S,10R,13R,14S,17R)-17-((R)-4-(4-fluoropyridin-2-yl)butan-2-yl)-10,13-dimethyl-2,3,4,7,8,9,10,11,12,13,14,15,16,17-tetradecahydro-1H-cyclopenta[a]phenanthren-3-ol] | 5.00 to 6.00 | > 6.60
19 | COc1cc(N2CCN(C(=O)CC[C@@H](C)[C@H]3CC[C@H]4[C@@H]5CC=C6C[C@@H](O)CC[C@]6(C)[C@H]5CC[C@]34C)[C@@H](C)C2)ncn1 [Example 648, (R)-4-((3S,8S,9S,10R,13R,14S,17R)-3-hydroxy-10,13-dimethyl-2,3,4,7,8,9,10,11,12,13,14,15,16,17-tetradecahydro-1H-cyclopenta[a]phenanthren-17-yl)-1-((S)-4-(6-methoxypyrimidin-4-yl)-2-methylpiperazin-1-yl)pentan-1-one] | < 5.00 | > 6.60
